Measured values reported in US9814739B2, “2′-ethynyl nucleoside derivatives for treatment of viral infections” (priority 2012, dated 2017).
Read-outs that look alike come from different tables or passages of the source.

Tests used:
[1] = test system: Replicon cells, expressing the GT1b HCV luciferase replicon
[2] = test system: GT1b HCV luciferase replicon; experiment: HCV replicon antiviral EC50 assay; format: cell-based, Hepatitis C virus
in vitro = conditions: for CC50: HCV GT1b CC50 (uM)
[3] = Hepatitis C virus, GT1B, 72 h, read-out: HCV GT1b EC50 (uM)

Compound | EC50 ([2]; read-out: HCV GT1b EC50) [µM] | CC50 (in vitro) [µM] | EC50 [2, 3] [µM] | further results
C#C[C@@]1(O)[C@H](O)[C@@H](COP(=O)(N[C@@H](Cc2ccccc2)C(=O)OC(C)C)Oc2ccccc2)O[C@H]1n1ccc(=O)[nH]c1=O (single isomer, unassigned) [1.10 (peak 1)] | 2.87 |  |  | CC50 [1]: > 25 µM
C#C[C@@]1(O)[C@H](O)[C@@H](COP(=O)(N[C@@H](Cc2ccccc2)C(=O)OC(C)C)Oc2ccccc2)O[C@H]1n1ccc(=O)[nH]c1=O (single isomer, unassigned) [1.10 (peak 2)] | 0.023 | > 25 |  | 
C#C[C@@]1(O)[C@H](O)[C@@H](COP(=O)(N[C@@H](C)C(=O)OC2CCC2)Oc2ccccc2)O[C@H]1n1ccc(=O)[nH]c1=O (single isomer, unassigned) [1.11 (peak 1)] | 0.1 |  |  | CC50 [1]: > 25 µM
C#C[C@@]1(O)[C@H](O)[C@@H](COP(=O)(N[C@@H](C)C(=O)OC2CCC2)Oc2ccccc2)O[C@H]1n1ccc(=O)[nH]c1=O (single isomer, unassigned) [1.11 (peak 2)] |  | > 25 | 0.058 | 
C#C[C@@]1(O)[C@H](O)[C@@H](COP(=O)(N[C@@H](C)C(=O)O[C@@H](C)CC)Oc2ccccc2)O[C@H]1n1ccc(=O)[nH]c1=O (single isomer, unassigned) [1.13 (peak 1)] | 0.302 |  |  | CC50 [1]: > 25 µM
C#C[C@@]1(O)[C@H](O)[C@@H](COP(=O)(N[C@@H](C)C(=O)O[C@@H](C)CC)Oc2ccccc2)O[C@H]1n1ccc(=O)[nH]c1=O (single isomer, unassigned) [1.13 (peak 2)] | 0.025 | > 25 |  | 
C#C[C@@]1(O)[C@H](O)[C@@H](COP(=O)(N[C@@H](C)C(=O)OC2CCOCC2)Oc2ccccc2)O[C@H]1n1ccc(=O)[nH]c1=O (single isomer, unassigned) [1.14 (peak 1)] | 1.15 |  |  | CC50 [1]: > 25 µM
C#C[C@@]1(O)[C@H](O)[C@@H](COP(=O)(N[C@@H](C)C(=O)OC2CCOCC2)Oc2ccccc2)O[C@H]1n1ccc(=O)[nH]c1=O (single isomer, unassigned) [1.14 (peak 2)] | 0.459 | > 25 |  | 
C#C[C@@]1(O)[C@H](O)[C@@H](COP(=O)(N[C@@H](C)C(=O)O[C@H](C)CC)Oc2ccccc2)O[C@H]1n1ccc(=O)[nH]c1=O (single isomer, unassigned) [1.15 (peak 1)] | 0.172 |  |  | CC50 [1]: > 25 µM
C#C[C@@]1(O)[C@H](O)[C@@H](COP(=O)(N[C@@H](C)C(=O)O[C@H](C)CC)Oc2ccccc2)O[C@H]1n1ccc(=O)[nH]c1=O (single isomer, unassigned) [1.15 (peak 2)] | 0.029 | > 25 |  | 
C#C[C@@]1(O)[C@H](O)[C@@H](COP(=O)(N[C@@H](C)C(=O)OC(CC)CC)Oc2ccccc2)O[C@H]1n1ccc(=O)[nH]c1=O (single isomer, unassigned) [1.16 (peak 1)] | 0.34 |  |  | CC50 [1]: > 25 µM
C#C[C@@]1(O)[C@H](O)[C@@H](COP(=O)(N[C@@H](C)C(=O)OC(CC)CC)Oc2ccccc2)O[C@H]1n1ccc(=O)[nH]c1=O (single isomer, unassigned) [1.16 (peak 2)] | 0.056 | > 25 |  | 
C#C[C@@]1(O)[C@H](O)[C@@H](COP(=O)(N[C@@H](C)C(=O)OCOC(C)=O)Oc2ccccc2)O[C@H]1n1ccc(=O)[nH]c1=O (single isomer, unassigned) [1.17 (peak 2)] |  | > 25 | 9.09 | 
C#C[C@@]1(O)[C@H](O)[C@@H](COP(=O)(NCCOC(=O)c2ccccc2)Oc2ccccc2)O[C@H]1n1ccc(=O)[nH]c1=O (single isomer, unassigned) [1.18 (peak 2)] |  | > 25 | 0.089 | 
C#C[C@@]1(O)[C@H](O)[C@@H](COP(=O)(N[C@@H](CC(C)C)C(=O)OC(C)C)Oc2ccccc2)O[C@H]1n1ccc(=O)[nH]c1=O (single isomer, unassigned) [1.23 (peak 2)] | 0.305 | > 25 |  | 
C#C[C@@]1(O)[C@H](O)[C@@H](COP(=O)(N[C@@H](CCC)C(=O)OC(C)C)Oc2ccccc2)O[C@H]1n1ccc(=O)[nH]c1=O (single isomer, unassigned) [1.24 (peak 2)] | 0.062 | > 25 |  | 
C#C[C@@]1(O)[C@H](O)[C@@H](COP(=O)(N[C@@H](C)C(=O)OC(C)C)Oc2ccccc2)O[C@H]1n1ccc(=O)[nH]c1=O (single isomer, unassigned) [1.25 (peak 1)] |  | > 25 | 0.358 | 

Compound | EC50 ([2]; read-out: HCV GT1b EC50) [µM] | CC50 (in vitro) [µM] | EC50 [2, 3] [µM] | further results
C#C[C@@]1(O)[C@H](O)[C@@H](COP(=O)(N[C@@H](C)C(=O)OC(C)C)Oc2ccccc2)O[C@H]1n1ccc(OC)nc1=O (single isomer, unassigned) [1.28 (peak 2)] |  | > 25 | > 100 | 
C#C[C@@]1(O)[C@H](O)[C@@H](COP(=O)(N[C@@H](C)C(=O)OC(C)C)Oc2ccccc2)O[C@H]1n1ccc(N)nc1=O (single isomer, unassigned) [1.30 (peak 2)] |  | > 25 | 54.3 | 
C#C[C@@]1(O)[C@H](O)[C@@H](COP(=O)(N[C@@H](C)C(=O)OC2CCCC2)Oc2ccccc2)O[C@H]1n1ccc(=O)[nH]c1=O (single isomer, unassigned) [1.31 (peak 2)] | 0.006 | > 25 |  | 
C#C[C@@]1(O)[C@H](O)[C@@H](COP(=O)(N[C@@H](C)C(=O)OCC(C)(C)OC)Oc2ccccc2)O[C@H]1n1ccc(=O)[nH]c1=O (single isomer, unassigned) [1.32 (peak 2)] | 0.182 | > 25 |  | 
C#C[C@@]1(O)[C@H](O)[C@@H](COP(=O)(N[C@@H](C)C(=O)OCC(C)(C)C)Oc2ccccc2)O[C@H]1n1ccc(=O)[nH]c1=O (single isomer, unassigned) [1.33 (peak 2)] | 0.994 | > 25 |  | 
C#C[C@@]1(O)[C@H](O)[C@@H](COP(=O)(N[C@@H](C)C(=O)OC(CCC)CCC)Oc2ccccc2)O[C@H]1n1ccc(=O)[nH]c1=O (single isomer, unassigned) [1.34 (peak 2)] |  | > 25 | 0.151 | 
C#C[C@@]1(O)[C@H](O)[C@@H](COP(=O)(N[C@@H](C)C(=O)OC)Oc2ccccc2)O[C@H]1n1ccc(=O)[nH]c1=O (single isomer, unassigned) [1.35 (peak 2)] |  | > 25 | 0.194 | 
C#C[C@@]1(O)[C@H](O)[C@@H](COP(=O)(N[C@@H](C)C(=O)OCC)Oc2ccccc2)O[C@H]1n1ccc(=O)[nH]c1=O (single isomer, unassigned) [1.36 (peak 2)] |  | > 25 | 0.096 | 
C#C[C@@]1(O)[C@H](O)[C@@H](COP(=O)(NC(C)(C)C(=O)OCC)Oc2ccccc2)O[C@H]1n1ccc(=O)[nH]c1=O (single isomer, unassigned) [1.37 (peak 2)] |  | > 25 | 0.478 | 
C#C[C@@]1(O)[C@H](O)[C@@H](COP(=O)(N[C@@H](CC)C(=O)OC(C)C)Oc2ccccc2)O[C@H]1n1ccc(=O)[nH]c1=O (single isomer, unassigned) [1.38 (peak 2)] |  | > 25 | 0.54 | 
C#C[C@@]1(O)[C@H](O)[C@@H](COP(=O)(NC(C)(C)C(=O)OC(C)C)Oc2ccccc2)O[C@H]1n1ccc(=O)[nH]c1=O (single isomer, unassigned) [1.39 (peak 2)] | 0.047 | > 25 |  | 
C#C[C@@]1(O)[C@H](O)[C@@H](COP(=O)(N[C@@H](C)C(=O)OC2CCCCC2)Oc2ccccc2)O[C@H]1n1ccc(=O)[nH]c1=O (stereo partly drawn) [Example 1.12, (2S)-cyclohexyl 2-(((((2R,3R,4R,5R)-5-(2,4-dioxo-3,4-dihydropyrimidin-1(2H)-yl)-4-ethynyl-3,4-dihydroxytetrahydrofuran-2-yl)methoxy)(phenoxy)phosphoryl)amino)propanoate] |  | > 25 | 0.013 | 
C#C[C@@]1(O)[C@H](O)[C@@H](COP(=S)(N[C@@H](C)C(=O)OC(C)C)Oc2ccccc2)O[C@H]1n1ccc(=O)[nH]c1=O (stereo partly drawn) [Example 1.19, (2S)-isopropyl 2-(((((2R,3R,4R,5R)-5-(2,4-dioxo-3,4-dihydropyrimidin-1(2H)-yl)-4-ethynyl-3,4-dihydroxytetrahydrofuran-2-yl)methoxy)(phenoxy)phosphorothioyl)amino)propanoate] |  |  | 0.036 | CC50 at 3 days (in vitro): > 25 µM
C#C[C@@]1(O)[C@H](OC(C)=O)[C@@H](COP(=O)(N[C@@H](C)C(=O)OC(C)C)Oc2ccccc2)O[C@H]1n1ccc(=O)[nH]c1=O (stereo partly drawn) [Example 1.21, (2S)-isopropyl 2-(((((2R,3R,4R,5R)-3-acetoxy-5-(2,4-dioxo-3,4-dihydropyrimidin-1(2H)-yl)-4-ethynyl-4-hydroxytetrahydrofuran-2-yl)methoxy)(phenoxy)phosphoryl)amino)propanoate] |  | > 25 | 0.067 | 
C#C[C@@]12OC(=O)O[C@@H]1[C@@H](COP(=O)(N[C@@H](C)C(=O)OC(C)C)Oc1ccccc1)O[C@H]2n1ccc(=O)[nH]c1=O (stereo partly drawn) [Example 1.22, (2S)-isopropyl 2-(((((3aR,4R,6R,6aR)-6-(2,4-dioxo-3,4-dihydropyrimidin-1(2H)-yl)-6a-ethynyl-2-oxotetrahydrofuro[3,4-d][1,3]dioxol-4-yl)methoxy)(phenoxy)phosphoryl)amino)propanoate] |  | > 25 | 0.108 | 
C#C[C@]1(O)[C@H](n2ccc(=O)[nH]c2=O)O[C@@](CO[P@@](=O)(N[C@@H](C)C(=O)OC(C)C)Oc2ccccc2)(N=[N+]=[N-])[C@H]1O [Example 1.26, (2S)-isopropyl 2-(((((2R,3S,4R,5R)-2-azido-5-(2,4-dioxo-3,4-dihydropyrimidin-1(2H)-yl)-4-ethynyl-3,4-dihydroxytetrahydrofuran-2-yl)methoxy)(phenoxy)phosphoryl)amino)propanoate] |  | > 25 | 1.44 | 
C#C[C@@]1(O)[C@H](O)[C@@H](COP(=O)(O)N[C@@H](C)C(=O)O)O[C@H]1n1ccc(=O)[nH]c1=O [Example 1.40, (2S)-2-(((((2R,3R,4R,5R)-5-(2,4-dioxo-3,4-dihydropyrimidin-1(2H)-yl)-4-ethynyl-3,4-dihydroxytetrahydrofuran-2-yl)methoxy)(hydroxy)phosphoryl)amino)propanoic acid] |  | > 25 |  | EC50 ([2]; Hepatitis C virus, 72 h, GT1b replicon cells, 3 days, luciferase, read-out: HCV GT1b EC50): 0.148 µM
